For data set [1] the following is noted: experimental, cited from earlier work.
A short description of data set [2]: RP-18 thin layer chromatography (RM). Type of data set: physicochemical. The settings on record: RP-18 F254s TLC, acetonitrile/pH 7.4 phosphate buffered saline 70:30 (v/v); RM = log (1/Rf−1). How it is done:
Thin layer chromatography was performed according to [33] on 10 × 20 cm glass-backed RP-18 F254s TLC plates from Merck, Germany (layer thickness 0.25 mm). Before use, the plates were prewashed with methanol-dichloromethane 1:1 (v/v) and dried overnight in ambient conditions. […] The chromatographic plates were developed in a vertical chromatographic chamber lined with filter paper and previously saturated with the mobile phase vapor for 20 min. The mobile phase consisted of acetonitrile/pH 7.4 phosphate buffered saline 70:30 (v/v). The development distance was 95 mm from the plate bottom edge. After development, the plates were dried at room temperature and examined under UV light (254 nm) and with the Desaga CD60 densitometer (Multiwavelength Scan, 200–300 nm at 20 nm intervals). All chromatograms were repeated in duplicate, and the mean Rf values were used in further investigations. The chromatographic parameter RM considered in these investigations was defined by Bate-Smith and Westall: RM= log (1/Rf−1).

Where [3] appears, read: hydrocortisone esters 17 to 27, ref 40 (Anderson et al.).
Setting [4] is: nonsteroid compounds 39 to 46, source not given.

Where two headings read alike, the source gives them in different places.

In the case of `C[C@]12CCC(=O)C=C1CC[C@@H]1[C@@H]2[C@@H](O)C[C@@]2(C)[C@H]1CC[C@]2(O)C(=O)COC(=O)CCCCCO` [compound 23, HC 6-hydroxyhexanoate], the “logKp^exp” value in data set [1] (setting [3]) is −3.04.
On to `CNC(=C[N+](=O)[O-])NCCSCc1ccc(CN(C)C)o1` [compound 40, Ranitidine], for which, in data set [2], the RM was −0.66.
As for `CC(=O)[C@@]1(O)CC[C@H]2[C@@H]3CCC4=CC(=O)CC[C@]4(C)[C@H]3CC[C@@]21C` [compound 9, 17-α-Hydroxyprogesterone], the “logKp^exp” value in data set [1] (compounds 1 to 16) was −3.22.
Take `C[C@]12CCC(=O)C=C1CC[C@@H]1[C@@H]2C(=O)C[C@@]2(C)[C@H]1CC[C@]2(O)C(=O)CO` [compound 16, Cortisone]: the “logKp^exp” value in data set [1] (compounds 1 to 16) is on record as −5.00.
`C#C[C@]1(O)CC[C@H]2[C@@H]3[C@H](C)CC4=C(CCC(=O)C4)[C@H]3CC[C@@]21C` [compound 38, Tibolone] registered an RM in data set [2] of 0.33.
Take `C[C@H]1O[C@@H](O[C@H]2[C@@H](O)C[C@H](O[C@H]3[C@@H](O)C[C@H](O[C@H]4CC[C@@]5(C)[C@H](CC[C@@H]6[C@@H]5C[C@@H](O)[C@]5(C)[C@@H](C7=CC(=O)OC7)CC[C@]65O)C4)O[C@@H]3C)O[C@@H]2C)C[C@H](O)[C@@H]1O` [compound 37, Digoxin]: in data set [2], the RM was −0.91.
In turn, `COC(=O)c1ccc(O)cc1` [compound 42, Methylparaben] had an RM in data set [2] of −0.41. Further, in data set [1] (setting [4]), the “logKp^exp” value is −2.04.
Regarding `C[C@@H]1C[C@H]2[C@@H]3CCC4=CC(=O)C=C[C@]4(C)[C@@]3(F)[C@@H](O)C[C@]2(C)[C@@]1(O)C(=O)CO` [compound 1, Dexamethasone], in data set [2], the RM is reported as −0.35.
Turning to `C[C@]12CC[C@H]3[C@@H](CCC4=CC(=O)CC[C@@]43C)[C@@H]1CC[C@@H]2C(=O)CO` [compound 11, Deoxycorticosterone], in data set [1] (compounds 1 to 16), the “logKp^exp” value was −3.34.
`C[C@]12CCC(=O)C=C1CC[C@@H]1[C@@H]2[C@@H](O)C[C@@]2(C)[C@H]1CC[C@]2(O)C(=O)CO` [compound 2, Hydrocortisone] displayed an RM in data set [2] of −0.33. Also, the “logKp^exp” value in data set [1] (compounds 1 to 16) is on record as −4.79.
In the case of `CC(C)Cc1ccc(C(C)C(=O)O)cc1` (centres unmarked) [compound 39, Ibuprofen], the RM in data set [2] came out at 0.08. Also, in data set [1] (setting [4]), the “logKp^exp” value is given as −1.44.
As for `CCCCCC(=O)OCC(=O)[C@@]1(O)CC[C@H]2[C@@H]3CCC4=CC(=O)CC[C@]4(C)[C@H]3[C@@H](O)C[C@@]21C` [compound 26, HC hexanoate], the “logKp^exp” value in data set [1] (setting [3]) was −1.74.
In data set [2], `CN1C(C(=O)Nc2ccccn2)=C(O)c2ccccc2S1(=O)=O` [compound 45, Piroxicam] had an RM of 0.00. Moreover, the “logKp^exp” value in data set [1] (setting [4]) is recorded as −3.81.
In the case of `CC(=O)[C@H]1CC[C@H]2[C@@H]3CCC4=CC(=O)CC[C@]4(C)[C@H]3CC[C@]12C` [compound 3, Progesterone], the RM in data set [2] is listed as 0.60.
For the compound `O=C(O)c1ccccc1O` [compound 43, Salicylic acid], the RM in data set [2] was −0.37. In addition, the “logKp^exp” value in data set [1] (setting [4]) is recorded as −2.84.
Consider `C[C@]12CC[C@H]3[C@@H](CCC4=CC(=O)CC[C@@]43C)[C@@H]1CC[C@@H]2O` [compound 12, Testosterone], for which the “logKp^exp” value in data set [1] (compounds 1 to 16) is reported as −2.65.
As for `CC(=O)OCC(=O)[C@@]1(O)CC[C@H]2[C@@H]3CCC4=CC(=O)CC[C@]4(C)[C@H]3[C@@H](O)C[C@@]21C` [compound 29, HC acetate], in data set [2], the RM is −0.12.
For the compound `CC(=O)[C@H]1CC[C@H]2[C@@H]3CC=C4C[C@@H](O)CC[C@]4(C)[C@H]3CC[C@]12C` [compound 8, Pregnenolone], in data set [1] (compounds 1 to 16), the “logKp^exp” value is given as −2.82.
Turning to `CC(=O)OCC(=O)[C@@]1(O)CC[C@H]2[C@@H]3CCC4=CC(=O)CC[C@]4(C)[C@H]3C(=O)C[C@@]21C` [compound 31, Cortisone acetate], the RM in data set [2] was −0.12.
With `COC(=O)CCCCCC(=O)OCC(=O)[C@@]1(O)CC[C@H]2[C@@H]3CCC4=CC(=O)CC[C@]4(C)[C@H]3[C@@H](O)C[C@@]21C` [compound 25, HC methylpimelate], the “logKp^exp” value in data set [1] (setting [3]) was −2.27.
As for `CC(=O)Oc1ccccc1C(=O)O` [compound 41, Aspirin], the RM in data set [2] is listed as −0.50. Moreover, the “logKp^exp” value in data set [1] (setting [4]) was −2.14.
For the compound `C[C@]12CCC(=O)C=C1CC[C@@H]1[C@@H]2CC[C@@]2(C)[C@H]1CC[C@]2(O)C(=O)CO` [compound 13, Cortexolone], the “logKp^exp” value in data set [1] (compounds 1 to 16) is listed as −4.12.
For the compound `COc1ccc2c(c1)c(CC(=O)O)c(C)n2C(=O)c1ccc(Cl)cc1` [compound 44, Indomethacin], in data set [2], the RM is reported as −0.07.
The compound `CCC(=O)O[C@H]1CC[C@H]2[C@@H]3CCC4=CC(=O)CC[C@]4(C)[C@H]3CC[C@]12C` [compound 32, Testosterone propionate] had an RM in data set [2] of 0.85.
For the compound `C[C@]12C=CC(=O)C=C1CC[C@@H]1[C@@H]2[C@@H](O)C[C@@]2(C)[C@H]1CC[C@]2(O)C(=O)CO` [compound 4, Prednisolone], the RM in data set [2] was −0.33. Besides, in data set [1] (compounds 1 to 16), the “logKp^exp” value is −4.35.
In data set [2], `CC(=O)OCC(=O)[C@H]1CC[C@H]2[C@@H]3CCC4=CC(=O)CC[C@]4(C)[C@H]3CC[C@]12C` [compound 30, Deoxycortisone acetate] displayed an RM of 0.41.
On to `C[C@]12CC[C@@H]3c4ccc(O)cc4CC[C@H]3[C@@H]1CCC2=O` [compound 5, Estrone], for which the RM in data set [2] is given as 0.09. Moreover, in data set [1] (compounds 1 to 16), the “logKp^exp” value is −2.44.
Regarding `C[C@]12CCC(=O)C=C1CC[C@@H]1[C@@H]2[C@@H](O)C[C@]2(C=O)[C@@H](C(=O)CO)CC[C@@H]12` [compound 6, Aldosterone], the “logKp^exp” value in data set [1] (compounds 1 to 16) is −4.41.
With `COc1ccc2cc([C@H](C)C(=O)O)ccc2c1` [compound 46, Naproxen], the RM in data set [2] was −0.16.
In the case of `C[C@]12CC[C@@H]3c4ccc(O)cc4CC[C@H]3[C@@H]1CC[C@@H]2O` [compound 14, Estradiol], the “logKp^exp” value in data set [1] (compounds 1 to 16) is −2.21.
`C[C@]12CC[C@@H]3c4ccc(OC(=O)c5ccccc5)cc4CC[C@H]3[C@@H]1CC[C@@H]2O` [compound 28, Estradiol benzoate] returned an RM in data set [2] of 0.91.
Regarding `CCCCCCCC(=O)OCC(=O)[C@@]1(O)CC[C@H]2[C@@H]3CCC4=CC(=O)CC[C@]4(C)[C@H]3[C@@H](O)C[C@@]21C` [compound 27, HC octanoate], the “logKp^exp” value in data set [1] (setting [3]) is listed as −1.21.
`C[C@]12CCC(=O)C=C1CC[C@@H]1[C@@H]2CC[C@@]2(C)[C@H]1CC[C@]2(C)O` [compound 33, Methyltestosterone] returned an RM in data set [2] of 0.41.
On the same count and under the same terms, to `COC(=O)[C@@H]1CC2=CC(=O)CC[C@]2(C)[C@@]23O[C@@H]2C[C@@]2(C)[C@@H](CC[C@@]24CCC(=O)O4)[C@H]13` [compound 36, Eplerenone] belongs −0.21; to `CC(=O)S[C@@H]1CC2=CC(=O)CC[C@]2(C)[C@H]2CC[C@@]3(C)[C@@H](CC[C@@]34CCC(=O)O4)[C@H]12` [compound 35, Spironolactone], 0.14.
On the same count and under the same terms, to `CCCCCCC(=O)O[C@H]1CC[C@H]2[C@@H]3CCC4=CC(=O)CC[C@]4(C)[C@H]3CC[C@]12C` [compound 34, Testosterone enanthate] belongs 1.38.
